Reference: patent publication US10023592B2, “Bromodomain inhibitors” (Celgene Quanticel Research, Inc., priority 2013, dated 2018)

Tests used:
BRD4(BD1) = BRD4(BD1) (Homo sapiens (Human), UniProt O60885); test: In vitro enzyme inhibition assay (BRD4 AlphaScreen); type: binding; details: class symbols A/B/C
Method in brief: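 AlphaScreen proximity readout, using streptavidin donor and Ni-chelate acceptor beads at 5 μg/mL final, monitors biotin-H4 tetraacetylated peptide interaction with purified His-tagged BRD4.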

[1] = tested on: Raji, human Burkitts lymphoma cells; test: Cell-MTS proliferation assay, Raji; type: cell-based; details: Homo sapiens, Raji; Cell-MTS, 168 hr; class symbols A/B/C
Method in brief: (§1)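 Seven-day colorimetric MTS assay; compound at 11 concentrations from 100 μM down to 2.0 nM final, added a day after plating. IC50 from OD490 normalised to DMSO controls.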

[2] = tested on: HL-60, human proleukemia cells; test: Cell-MTS proliferation assay, HL-60; type: cell-based; details: Homo sapiens, HL-60; Cell-MTS, 168 hr; class symbols A/B/C
Method in brief: as §1

[3] = tested on: NCI-H460, human non-small cell lung cancer cells; test: Cell-MTS proliferation assay, NCI-H460; type: cell-based; details: Homo sapiens, NCI-H460; Cell-MTS, 168 hr; class symbols A/B/C
Description: The Cell-MTS assay is a 7-day plate-based colorimetric assay which quantifies the amount of newly generated NADH in the presence or absence of test compound. The NADH level is used for the quantification of cancer cell proliferation.
Established cancer cell lines with a variety of driving mutations were obtained from American Type Culture Collection (ATCC) and routinely passaged according to ATCC protocols. For routine assay, these cells were seeded at densities which enabled ˜90% confluence after 7 days of culture. Raji, human Burkitts lymphoma cells, (cMYC) were seeded at 15,000 cells per 96-well. HL-60, human proleukemia cells, (NRAS, p16, p53, c-Myc amplified) were seeded at 5,000 cells per 96-well. NCI-H460, human non-small cell lung cancer cells, (KRAS, PIK3CA, STLK11, p16) were seeded at 3,000 cells per 96-well. 24 hr after plating, cells received an 11-point dilution of test compound with final concentration ranges from 100 μM to 2.0 nM. […] At the end of this incubation period, 80 μL of media is removed and 20 μL of CellTiter 96® AQueous Non-Radioactive Cell Proliferation Assay soln (Promega) was added. The cells were incubated until the OD490 was >0.6. IC50 values were calculated using the IDBS XLfit software package and include background subtracted OD490 values and normalization to DMSO controls. Cellular proliferation IC50 values were uploaded and archived using the Chem Biography Platform.

Compound | IC50 (BRD4(BD1)) [nM] | IC50 [1] [nM] | IC50 [2] [nM] | IC50 [3] [µM]
Cc1cc(-c2cc(NS(C)(=O)=O)ccc2Oc2ccc(F)cc2F)cn(C)c1=O [Example 102, N-[4-(2,4-difluorophenoxy)-3-(1,5-dimethyl-6-oxopyridin-3-yl)phenyl]methanesulfonamide] | < 500 | < 500 | < 500 | > 5
COc1ccc(-c2cc(N)c(=O)n(C)c2)cc1NS(C)(=O)=O [Example 109, N-[5-(5-amino-1-methyl-6-oxopyridin-3-yl)-2-methoxyphenyl]methanesulfonamide] | 500 to 5000 | > 5000 | > 5000 | > 5
CNc1cc(-c2ccc(OC)c(NS(C)(=O)=O)c2)cn(C)c1=O [Example 110, N-[2-methoxy-5-[1-methyl-5-(methylamino)-6-oxopyridin-3-yl]phenyl]methanesulfonamide] | < 500 | > 5000 | 500 to 5000 | > 5
COc1ccc(-c2cc(N(C)C)c(=O)n(C)c2)cc1NS(C)(=O)=O [Example 113, N-[5-[5-(dimethylamino)-1-methyl-6-oxopyridin-3-yl]-2-methoxyphenyl]methanesulfonamide] | < 500 | 500 to 5000 | < 500 | 0.5 to 5
CCS(=O)(=O)Nc1ccc(Oc2ccc(F)cc2F)c(-c2cc(N)c(=O)n(C)c2)c1 [Example 115, N-[3-(5-amino-1-methyl-6-oxopyridin-3-yl)-4-(2,4-difluorophenoxy)phenyl]ethanesulfonamide] | < 500 | < 500 | < 500 | > 5
Cn1cc(-c2cc(S(C)(=O)=O)ccc2OCC2CC2)cc(N)c1=O [Example 116, 3-amino-5-[2-(cyclopropylmethoxy)-5-methylsulfonylphenyl]-1-methylpyridin-2-one] | < 500 | > 5000 | 500 to 5000 | > 5
CCOc1ccc(S(N)(=O)=O)cc1-c1ccc(=O)n(C)c1 [Example 117, 4-ethoxy-3-(1-methyl-6-oxopyridin-3-yl)benzenesulfonamide] | < 500 | 500 to 5000 | 500 to 5000 | > 5
Cn1cc(-c2cc(S(N)(=O)=O)ccc2Oc2ccc(F)cc2F)ccc1=O [Example 118, 4-(2,4-difluorophenoxy)-3-(1-methyl-6-oxopyridin-3-yl)benzenesulfonamide] | < 500 | < 500 | < 500 | > 5
Cn1cc(-c2cc(S(C)(=O)=O)ccc2OCC2CC2)cc(F)c1=O [Example 119, 5-[2-(cyclopropylmethoxy)-5-methylsulfonylphenyl]-3-fluoro-1-methylpyridin-2-one] | 500 to 5000 | 500 to 5000 | 500 to 5000 | > 5
Cn1cc(-c2cc(S(C)(=O)=O)ccc2Oc2ccc(F)cc2F)cc(F)c1=O [Example 120, 5-[2-(2,4-difluorophenoxy)-5-methylsulfonylphenyl]-3-fluoro-1-methylpyridin-2-one] | 500 to 5000 | > 5000 | 500 to 5000 | > 5
CCS(=O)(=O)c1ccc(Oc2ccc(F)cc2F)c(-c2cc(F)c(=O)n(C)c2)c1 [Example 121, 5-[2-(2,4-difluorophenoxy)-5-ethylsulfonylphenyl]-3-fluoro-1-methylpyridin-2-one] | < 500 | 500 to 5000 | < 500 | > 5
CCS(=O)(=O)Nc1ccc(Oc2ccc(F)cc2F)c(-c2cc(F)c(=O)n(C)c2)c1 [Example 122, N-[4-(2,4-difluorophenoxy)-3-(5-fluoro-1-methyl-6-oxopyridin-3-yl)phenyl]ethanesulfonamide] | < 500 | < 500 | < 500 | > 5
CCS(=O)(=O)Nc1cccc(-c2cn(C)c(=O)c3ccncc23)c1 [Example 123, N-[3-(2-methyl-1-oxo-2,6-naphthyridin-4-yl)phenyl]ethanesulfonamide] | 500 to 5000 | 500 to 5000 | 500 to 5000 | > 5
